Assay results reported in publication PMC12428237, “Study on the Calcium Transport-Promoting Property and Mechanism of the Peptide–Calcium Complex DEEENDQVK–Ca Based on a Caco-2 Monolayer Model” (Foods, 2025).

Experiments:
[1] = system: Caco-2 monolayer; experiment: Calcium transport channel assay with channel regulators; assay type: cell-based, human; conditions: then 2 mg/mL sample, 120 min, 37 °C, n = 3
Method: Before the calcium transport channel assay, 0.5 mL of HBSS buffer containing different channel regulators was added to the AP sides of the Transwell chambers. These channel regulators included 2-APB (25 μmol/L) as a calcium channel inhibitor of TRPV6, cytochalasin D (0.5 μmol/ mL) as a paracellular channel promoter, and mβCD (3 mmol/L) as an endocytic channel inhibitor. The group without the added channel regulator served as the control group. The BL side received a 1.5 mL HBSS buffer. Following 30 min incubation, solutions were removed from both sides. The AP side was then loaded with 0.5 mL of either DK–Ca (2 mg/mL) or 2 mg/mL DK + 7.5 mM CaCl2 solution, while the BL side received 1.5 mL HBSS. After 120 min incubation at 37 °C and 5% CO2, the BL solution was collected for calcium transport analysis.

[2] = system: Caco-2 monolayer; experiment: Fluo-4 AM fluorescence imaging of intracellular calcium influx; assay type: cell-based, human; conditions: samples containing 150 μg/mL calcium, 24 h, Fluo-4 AM 4 μmol/L, confocal microscope
Method: Fluorescence imaging based on intracellular calcium influx was conducted to assess the calcium transport-promoting effect in the Caco-2 monolayer following the method of Men et al.. Log-phase cells were seeded at 1.5 × 10^5 cells/well in 35 mm laser confocal dishes and gently agitated to ensure uniform distribution. Cultures were maintained at 37 °C in 5% CO2 with daily medium replacement until confluent monolayers formed. Subsequently, CaCl2, DK + CaCl2, and DK–Ca solutions (each containing 150 μg/mL calcium) were added separately. The group without an added sample served as the control group. Following 24 h of incubation, the cells were washed thrice with prewarmed calcium-/magnesium-free HBSS buffer (pH 7.2). Under light-protected conditions, 200 µL of Fluo-4 AM (4 μmol/L) was applied to cover the cells. Following 30 min incubation at 37 °C and subsequent washes, cells were dark-adapted for 10 min at room temperature for de-esterification. Imaging was conducted using a confocal microscope (excitation at 496 nm, Zeiss LSM980 Airyscan2, Carl Zeiss, Germany ), followed by quantification of the fluorescence intensity with ImageJ 1.54 g software.

DEEENDQVK–Ca [DK–Ca, complex formed by chemically chelating DK with CaCl2]
reduction of transported calcium by 2-APB treatment compared to the control group ([1]; 2-APB (25 μmol/L, TRPV6 inhibitor) pre-incubation 30 min on AP side): 43.94%
improvement of transported calcium by cytochalasin D treatment compared to the control group ([1]; cytochalasin D (0.5 μmol/ mL, paracellular channel promoter) pre-incubation 30 min on AP side): 14.82%
reduction of transported calcium by mβCD treatment compared to the control group ([1]; mβCD (3 mmol/L, endocytic channel inhibitor) pre-incubation 30 min on AP side): 12.35%
fluorescence intensity (intracellular calcium influx) compared to the control group [2]: significantly increased
